One data set concerns Ehrlich carcinoma. Nature of the data set: Anti-tumor activity on Ehrlich carcinoma, subcutaneous transplant. In kind it is in vivo. Particulars: mice, oral once daily 7 days; for Inhibition percentage: 121.5 mg/kg (bis) or 90 mg/kg (mono), tumor weight on 10th day; for Weight of tumor: 121.5 mg/kg (bis) or 90 mg/kg (mono, equimolar), 10th day, control 0.61 ± 0.08 g. As to the method: (§1) As transplantable tumors, Ehrlich carcinoma and sarcoma 180 are used for mice and Yoshida sarcoma and AH 130 for rats. […] The effect of the compound is determined in terms of the weight of tumor on the 10th day from the transplantation.

For a further data set, the system named is AH-130. Put plainly: Anti-tumor activity on AH-130, subcutaneous transplant. In kind it is in vivo. Particulars: rats, oral once daily 7 days, 121.5 mg/kg (bis) or 90 mg/kg (mono); for Weight of tumor: 10th day, control 2.10 ± 0.50 g; for Inhibition percentage: tumor weight on 10th day. As to the method: as §1
The subject of the next data set is immunity. The settings on record: versus 5-fluorouracil; Giller et al., British Pat. No. 1,168,391; cited from earlier work.
The test system of another data set is Yoshida sarcoma. Nature of the data set: Anti-tumor activity on Yoshida sarcoma, subcutaneous transplant. Type of data set: in vivo. The settings on record: rats, oral once daily 7 days, 121.5 mg/kg (bis) or 90 mg/kg (mono); for Weight of tumor: 10th day, control 4.48 ± 0.60 g; for Inhibition percentage: tumor weight on 10th day. As to the method:
as §1

The conditions of data set [1]: rat, in vivo; for Concentration of 5-fluorouracil in cancer cellular tissue: po.
Protocol: (§3) Cells of the tumor, AH-130, 5×10^6 in number, are subcutaneously transplanted in the armpit region of test animals (3 in each group). […] The concentration of 5-fluorouracil in the blood and in the cancer cellular tissue of the animals are measured 1, 2, 4, 8 and 12 hours after the administration.
Another data set relates to sarcoma 180. Put plainly: Anti-tumor activity on sarcoma 180, subcutaneous transplant. In kind it is in vivo. Particulars: mice, oral once daily 7 days, 121.5 mg/kg (bis) or 90 mg/kg (mono); for Weight of tumor: 10th day, control 1.00 ± 0.09 g; for Inhibition percentage: tumor weight on 10th day. The method, then:
as §1

The conditions of data set [2]: rat, in vivo; for Concentration of 5-fluorouracil in blood: po.
Protocol: as §3
For data set [3] the following is noted: cited from earlier work.
For the next data set, the system named is transplanted tumors. The settings on record: Heidelberger et al.; cited from earlier work.
A short description of a further data set: Solubility. Type of data set: physicochemical.
Data set [4] in a line: Toxicity and side effects, overall statement. Particulars: versus 1-(2-tetrahydrofuryl)-5-fluorouracil.
For another data set, the system named is Mice (ddy strain). Nature of the data set: in vivo. In kind it is in vivo. The settings on record: for LD50: oral, mice. As to the method:
(§2) Mice (ddy strain, male, 5 weeks old) are reared for one week, then fasted for 15 hours and thereafter orally given the compound forcibly. After the administration, the mice are placed into plastic cages, with free access to a solid diet and water, and checked for mortality 3 days, one week, 2 weeks and 3 weeks later. LD50 is calculated according to the method of Litchfield and Wilcoxon.

Another data set in a line: in vivo. In kind it is in vivo. The settings on record: mouse, in vivo, oral, mice. The method, then: as §2
Data set [5] is described as follows: Conversion in the body into 5-fluorouracil. The settings on record: in vivo.
Protocol: as §3
The next data set relates to tumor. Put plainly: Anti-tumor activity, overall comparison with 1-(2-tetrahydrofuryl)-5-fluorouracil. Type of data set: in vivo. The settings on record: versus 1-(2-tetrahydrofuryl)-5-fluorouracil. The method, then:
as §1

Another data set deals with cellular immunity. Particulars: mouse, in vivo.

Like-named read-outs stand apart in the source and are kept apart here.

In general, LD50 refers to the dose expected to kill half of the subjects tested.

Protocol for cellular immunity: A predetermined amount of 7 wt. % ethanol solution of picryl chloride is given to the shaved abdomens of mice for sensitization. […] On the seventh day after the sensitization, a 1 wt. % olive oil solution of picryl chloride is applied to the inside of both ears of each animal to give rise to a delayed cutireaction. The thickness of the ear resulting from the reaction in 24 hours is measured to calculate the percentage of inhibition on immunity.

Take `O=c1[nH]c(=O)n(C2CCCO2)cc1F` (centres unmarked) [1-(2-tetrahydrofuryl)-5-fluorouracil, reference compound]: the Inhibition percentage with Ehrlich carcinoma is 39%; with AH-130, 47%; in the data set on Yoshida sarcoma it was 22%; in the data set with sarcoma 180 it was 64%. The Weight of tumor is 0.37 ± 0.14 g with Ehrlich carcinoma, 1.11 ± 0.17 g in the data set on AH-130, 3.48 ± 0.68 g with Yoshida sarcoma and 0.36 ± 0.11 g with sarcoma 180. The “Inhibition on immunity, in words” value in the data set on immunity is “less inhibitory on immunity than 5-fluorouracil”. The “Concentration of 5-fluorouracil in cancer cellular tissue” value in [1] (60 min) was not above 200 ng/mL; in data set [1] (120 min) it was 350 ng/mL; in data set [1] (240 min), 350 ng/mL; in data set [1] (480 min) it was 340 ng/mL; in [1] (720 min), not above 200 ng/mL. Besides, the “Concentration of 5-fluorouracil in blood” value in data set [2] (60 min) is 200 ng/mL; in [2] (120 min) it was 300 ng/mL; in [2] (240 min), 200 ng/mL; in data set [2] (480 min), 80 ng/mL; in data set [2] (720 min) it was not above 40 ng/mL. For the same compound, in data set [3] (versus 5-fluorouracil, Giller et al., British Pat. No. 1,168,391), the “Toxicity, in words” value is given as “lower in toxicity”.

In the case of `O=c1[nH]cc(F)c(=O)[nH]1` [5-fluorouracil], in the data set with transplanted tumors, the “Anti-tumor activity, in words” value is “inhibit transplanted tumors”. In addition, the “Toxicity, in words” value in [3] (background statement) is recorded as “highly toxic”. For the same compound, in data set [3] (in vivo), the “Side effects, in words” value was “reduced immunity, gastro-intestinal ulceration, leucopenia and various other side effects”.

Turning to `O=c1c(F)cn(C2CCCO2)c(=O)n1C1CCCO1` (centres unmarked) [1,3-bis(2-tetrahydrofuryl)-5-fluorouracil], the Solubility result in “Solubility” (methanol, ethanol, acetone, ether, chloroform, glacial acetic acid, dimethyl sulfoxide) is listed as “soluble”; in the data set “Solubility” (water, aqueous caustic soda solution, ethyl acetate, hydrochloric acid) it was “sparingly soluble”. In addition, the “Side effects, in words” value in data set [4] is reported as “less side effects”. In addition, the “Toxicity, in words” value in data set [4] is “lower toxicity”. Further, the Inhibition percentage in the data set with Ehrlich carcinoma was found to be 57%; with AH-130 it was 56%; in the data set on Yoshida sarcoma, 42%; in the data set on sarcoma 180, 69%. For the same compound, the Weight of tumor in the data set on Ehrlich carcinoma was determined as 0.26 ± 0.06 g; in the data set with AH-130, 0.92 ± 0.35 g; in the data set with Yoshida sarcoma, 2.59 ± 0.33 g; in the data set with sarcoma 180 it was 0.31 ± 0.10 g. The 50% lethal dose (LD50) in the data set with Mice (ddy strain) (1 week, 10080 min) is reported as 2,780 mg/kg; with Mice (ddy strain) (2 weeks, 20160 min), 2,664 mg/kg. Further, the “Acute toxicity relative to the conventional composition” value with Mice (ddy strain) (versus composition containing 1-(2-tetrahydrofuryl)-5-fluorouracil) was “about one-third”. The compound also yielded an LD50 at 504 h in the data set “in vivo” (3 weeks) of 2560 mg/kg. Also, the median lethal dose (LD50) at 72 h in the data set “in vivo” (3 days) turned out to be 2980 mg/kg. In addition, in data set [5], the “Conversion in the body (prodrug)” value is on record as “converted in the body into 5-fluorouracil”. The “Concentration of 5-fluorouracil in cancer cellular tissue relative to the conventional composition” value in data set [1] is listed as 10-20 times. In addition, in [1], the “Concentration of 5-fluorouracil maintained in cancer cellular tissue, in words” value was “much higher”. Also, the “Concentration of 5-fluorouracil in cancer cellular tissue” value amounted to 8930 ng/mL in [1] (60 min); 7530 ng/mL in data set [1] (120 min); 7530 ng/mL in data set [1] (240 min); 5400 ng/mL in data set [1] (480 min); 2130 ng/mL in data set [1] (720 min). The “Anti-tumor activity, in words” value in the data set on tumor is given as “more excellent anti-tumor activity”. Further, in [2], the “Concentration of 5-fluorouracil in the blood relative to the conventional composition” value is given as 10-20 times. For the same compound, the “Concentration of 5-fluorouracil in blood” value turned out to be 5880 ng/mL in data set [2] (60 min); 5080 ng/mL in [2] (120 min); 2650 ng/mL in data set [2] (240 min); 570 ng/mL in data set [2] (480 min); 200 ng/mL in data set [2] (720 min). Moreover, the “Inhibitory effect on the cellular immunity relative to the conventional composition” value in the data set with cellular immunity is “lower inhibitory effect on the cellular immunity”.
